Where two headings read alike, the source gives them in different places.
Assays:
[1] = tested on: VERO E6 cells; experiment: Cellular cytotoxicity in Vero E6 cells, MTT assay (Example 2); type: cell-based
Description: (§1) Ten thousand Vero E6 cells were seeded in 100 microliters of culture medium in 96 well plates. The following day serial two-fold dilutions of antiviral compounds or the DMSO-containing vehicle were added to each well. The USA WA-01 strain of SARS CoV-2 was added to each well at a multiplicity of infection of 0.1 thirty minutes later. Cells were incubated for 48 hours, washed twice in PBS and lysed with TRIzol. RNA was extracted using Directzol micro RNA columns. RNA was made into cDNA and assayed for the SARS CoV-2 spike protein and for a housekeeping gene (RPLPO) RNA by qPCR. Data represents the average of duplicate wells. Cellular cytotoxicity was also measured in VERO E6 cells. […] Cytotoxicity (CC50) was assessed using a commercially available MTT assay.

[2] = tested on: USA WA-01 strain of SARS CoV-2; experiment: Anti-coronavirus activity in Vero E6 cells, qPCR of spike RNA (Example 2); type: cell-based
Description: as §1

[3] = tested on: VERO E6 cells; experiment: CellTiter-Glo luminescent cell viability assay, Vero E6 (Example 3); type: cell-based
Description: (§2) CellTiter-glo luminescent cell viability assay: Approximately 10^4 Vero E6 cells per well were seeded in opaque walled 96 well cell culture plates and incubated overnight. Compounds or controls were added at the indicated concentrations. […] Viability was calculated compared to untreated controls and CC50 values were calculated using Prism 8.
(§3) Determination of Cytotoxicity: The 50% cytotoxic concentrations (CC50) were determined with Cell Titer Glo (Cat. #G7570, Promega, Madison, WI) according to the manufacturer's instructions. The calculated CC50 values are shown in the foregoing table.
(§4) Relative viability was measured by CellTiter-Glo luminescent cell viability assay, as depicted at FIG. 2.

[4] = tested on: Huh7.5 cells; experiment: Cell viability assay CellTiter-Glo, Huh7.5 cells (Example 7)
[5] = tested on: Calu-3 cells; experiment: Cell viability assay CellTiter-Glo, Calu-3 cells (Example 7); details: Calu-3 cells, CellTiter-Glo
[6] = tested on: MRC-5 cells
[7] = tested on: SARS-CoV-2 isolate USA-WA1/2020; experiment: SARS-CoV-2 infection in Calu-3 cells, qRT-PCR (Example 7); type: cell-based
[8] = tested on: SARS-CoV-2 isolate USA-WA1/2020; experiment: SARS-CoV-2 infection in Caco-2 cells, qRT-PCR (Example 7); type: cell-based
[9] = tested on: SARS-CoV-2 isolate USA-WA1/2020; experiment: SARS-CoV-2 infection in Vero E6 cells, qRT-PCR (Example 7); type: cell-based; details: for Selectivity: CC50/EC50, Vero E6 cells; for EC50 / EC90: Vero E6 cells, MOI 0.01, 48 hours
[10] = tested on: Huh7.5 cells; experiment: Cytotoxicity in Huh7.5 cells, nuclei count (Example 6); type: cell-based, human
[11] = tested on: SARS-CoV-2 isolate USA-WA1/2020; experiment: SARS-CoV-2 infection in PSC-human lung cells, qRT-PCR (Example 7); type: cell-based
[12] = tested on: SARS-CoV-2 isolate USA-WA1/2020; experiment: SARS-CoV-2 infection in Huh7.5 cells, qRT-PCR (Example 7); type: cell-based; details: for Selectivity: CC50/EC50, Huh7.5 cells
[13] = tested on: HCoV-229E; type: cell-based, human Coronavirus 229E
[14] = tested on: VERO E6 cells; experiment: Cell viability assay CellTiter-Glo, Vero E6 cells (Example 7)
[15] = tested on: PSC-human lung cells; experiment: Cell viability assay CellTiter-Glo, PSC-human lung cells (Example 7)
[16] = tested on: SARS-CoV-2 isolate USA-WA1/2020; experiment: SARS-CoV-2 infection in Vero E6 cells, qRT-PCR of Spike RNA (Example 3); type: cell-based
[17] = tested on: Caco-2 cells; experiment: Cell viability assay CellTiter-Glo, Caco-2 cells (Example 7); details: Caco-2 cells, CellTiter-Glo
[18] = tested on: HFF cells; experiment: Persistence of TFVpp in HFF cells after a 3 day exposure
From the text: HFF cells were exposed to 1 micromolar drug for 3 days. At days 0, 1, 2, 4, 7, 14, 21, and 28, cells were trypsinized, counted, and processed for LC/MS measurement of TFVpp. Data were expressed at ftg/cell. nm=not meaningful; ftg—gemtogram.

[19] = 42 day pharmacokinetic study after a single IM administration in rats, formulations F3, F4, F7, F8; type: in vivo; details: for time with plasma levels at a virally significant level: rats, IM, only the 100 mg/kg dose, formulation F3
Description: Comparison of Formulations F3, F4, F7 and F8 following a single IM administration in rats—Groups: Vehicle control, 10 mg/kg, 30 mg/kg and 100 mg/kg of formulations 3, 4, 7, 8.
Procedure: At time zero rats were injected intramuscularly with 100 microliters of vehicle and formulations as noted. […] Blood was obtained at 6, 24 and 48 hours, and at 7, 14, 28, 35 and 42 days and the plasma levels of ODE-Bn-TFV and ODE-TFV (the first metabolite, also an active anti-HIV compound) were determined by LC/MS/MS.
A 42 days pharmacokinetic study of formulations 3, 4, 7, and 8 of this example in rats was conducted. In the study, 100, 30, and 10 mg/kg of each formulation was administered by intramuscular (IM) injection to male Sprague Dawley rates (100 microliters). […] The rats were subjected to twice weekly clinical observations, and weights were collected.

[20] = tested on: human PBMCs; experiment: Cytotoxicity (CC50) in human PBMCs; type: cell-based
[21] = tested on: HIV-1; details: Beadle et al. Antiviral Res. 2019; cited from earlier work
[22] = tested on: HIV-1; details: for EC50: HIV infected human PBMCs
Procedure: Antiviral activities were determined in HIV infected human PBMCs.

[23] = Cellular cytotoxicity in Vero E6 cells, MTT assay (Example 2); type: cell-based; details: African green monkey
Description: as §1

[24] = reported, Siegel et al. 2017; cited from earlier work
[25] = tested on: VERO E6 cells; experiment: Generation of remdesivir triphosphate in Vero E6 cells (LC/MS/MS); type: in vitro ADME; details: 1 micromolar drug, up to 48 hours
Description: In this example, Vero E6 cells were plated in 6 well plates at about 3.4×10^5 cells per well in 2 mL of media (DMEM, 10% FBS).
Cells were then incubated at 37° C. for 24 hours. Media was then aspirated and replaced with 2 mL of control media (fresh Dulbecco's Modified Eagle's Medium (DMEM), 10% FBS) or 2 mL of media with drug at a concentration of 1 μM. Cell were incubated with the various drugs for 48 hours. The media was aspirated, the cells rinsed twice with phosphate-buffered saline (PBS), trypsinized for 5 minutes with 1 mL ATV, triturated and removed to a 15 mL centrifuge tube, rinsed with 1 mL PBS, which was also then removed to the 15 mL centrifuge tube, and the cells were triturated again. Cells were counted in a Reichert hemocytometer using two 10 μL samples, and the number of cells in each sample was determined.
Cells were centrifuged at 1200 rpm for 10 minutes, diluent aspirated and the pellet resuspended in 250 μL of methanol/distilled water (70/30) and analyzed by LC/MS/MS. The results, which are depicted at FIG. 3, were in picomoles/10^6 cells and were the average of two or three determinations.

[26] = CellTiter-Glo luminescent cell viability assay, Vero E6 (Example 3); type: cell-based; details: African green monkey; Vero E6 cells, Cell Titer Glo, 48.5 hours; read-out: CC50
Description: as §2, §3, §4

[27] = Cell viability assay CellTiter-Glo, Calu-3 cells (Example 7); details: human
[28] = after intravenous infusion, reported; cited from earlier work
[29] = in vitro; details: human
Procedure: Cells were infected with 229E for 2 hours followed by treatment with the indicated dose of the indicated drug for 72 hours. The relative CPE was determined by measuring cell viability using an MTT assay. depicts the cytotoxicity in MRC-5 cells incubated in the presence of the indicated drug at the indicated concentration for 72 hours, after which cell viability was measured by the CellTiter-Glo assay. Data points indicate the averages from 3 independent experiments performed in duplicate. Error bars represent the standard error mean (SEM).

[30] = Cell viability assay CellTiter-Glo, Caco-2 cells (Example 7); details: human
[31] = parameters: species or system beagle dogs; details: dog, in vivo
Description: Canine Pharmacokinetics of ODE-Bn-TFV in Formulation F3—A 30 day study in beagle dogs was done with 30 mg/kg IM doses of ODE-Bn-TFV in formulation F3.

[32] = rat, in vivo
Procedure: Maximal volume IM injections of 100 microliters were given at day 0, 30 and 60 to groups of 3 rats. There were 3 groups of control animals who received monthly injections of F3 vehicle. […] Weights were assessed over the 3-month period. […] Because a constant (maximal) IM volume of 100 microliters was given, the initial dose was 90 mg/kg and the two following injections at days 30 and 60 were lower, 62 mg/kg, due to weight increases of the rats.

[33] = Vero E6 cells, MOI 0.1, 48 hours
[34] = Caco-2 cells, MOI 0.01, 48 hours
[35] = Huh7.5 cells, MOI 0.01, 48 hours, qRT-PCR (Example 7)
[36] = Vero E6 cells, MOI 0.01, 48 hours, mean±SD
[37] = Severe acute respiratory syndrome coronavirus 2, Vero C1008

## CCCCCCCCCCCCCCCCCCOCCOP(=O)(O)OC[C@H]1O[C@@](C#N)(c2ccc3c(N)ncnn23)[C@H](O)[C@@H]1O [Compound 4c, 2-(Octadecyloxy)ethyl-phospho-RVn]
[1]
  CC50: > 50000 nM
[2]; CC50/EC50, Vero E6
  Selectivity Index: >143
[2]; [33]
  EC50: 350 nM
  EC90: 530 nM
[3]
  CC50: > 100000 nM
[4]
  CC50: > 100000 nM
[5]
  CC50: 98700 nM
[6]
  CC50: > 50000 nM
[7]; CC50/EC50, Calu-3 cells
  Selectivity: 290
[7]; Calu-3 cells, MOI 0.01, 48 hours
  EC90: 640 nM
[7]; Calu-3 cells, MOI 0.01, 48 hours, listed as ODE-P-RVn
  EC50: 340 nM
[8]; CC50/EC50, Caco-2 cells
  Selectivity: >129
[8]; [34]
  EC50: 770 nM
  EC90: 1250 nM
[9]
  Selectivity: >333
  EC50: 300 nM
  EC90: 330 nM
[10]
  CC50: > 20000 nM
[11]; CC50/EC50, PSC-human lung cells
  Selectivity: >454
[11]; PSC-human lung cells, MOI 0.01, 48 hours
  EC90: 700 nM
[11]; PSC-human lung cells, MOI 0.01, 48 hours, listed as ODE-P-RVn
  EC50: 220 nM
[12]
  Selectivity: >526
[12]; [35]
  EC50: 190 nM
  EC90: 370 nM
[12]; Huh7.5 cells, MOI 0.01, 48 hours, qRT-PCR (Example 7), listed as ODE-P-RVn
  EC50: 190 nM
[13]
  EC50: 410 ± 12 nM
  EC90: 840 ± 95 nM
[14]
  CC50: > 100000 nM
[15]
  CC50: > 100000 nM
[16]; CC50/EC50, Vero E6
  Selectivity: >212
[16]; [36]
  EC50: 470 ± 180 nM
  EC90: 1100 ± 800 nM
[16]; based on the EC50 values, Vero E6
  times more active than RDV: 9.8
[17]
  CC50: > 100000 nM

## CCCCCCCCCCCCCCCCCCOCCOP(=O)(O)CO[C@H](C)Cn1cnc2c(N)ncnc21 [ODE-TFV]
[18]
  T1/2 of TFVpp: 1.2
  Tmax of TFVpp: 0 h
[19]
  time with plasma levels at a virally significant level: 28 days
[20]
  CC50: 1280 nM
[21]
  EC90: 10 nM
[22]
  EC50: 1.1 nM
[22]; reference line in FIG. 12B
  ED90: 6.3 nm/mL

## CCC(CC)COC(=O)[C@H](C)N[P@](=O)(OC[C@H]1O[C@@](C#N)(c2ccc3c(N)ncnn23)[C@H](O)[C@@H]1O)Oc1ccccc1 [RDV, Remdesivir, reference compound]
[23]
  CC50: > 50000 nM
[24]
  T1/2 ex vivo in human plasma: 1.15 h
[25]
  levels of remdesivir triphosphate (RVn-TP): below the level of quantification
[26]
  CC50 at 48.5 h: > 100000 nM
[27]
  CC50 at 48.5 h: > 100000 nM
[28]
  time persisting at virologically significant levels in plasma: less than 2 hours
[9]
  Selectivity: 89.4
[9]; [37]
  EC50: 1130 nM
  EC90: 7050 nM
[29]
  CC50: > 50000 nM
[12]
  Selectivity: 253
[30]
  CC50 at 48.5 h: > 100000 nM

## Octadecyloxyethyl benzyl tenofovir [ODE-Bn-TFV]
[31]
  adverse effects: no adverse effects except for some transient swelling at the injection sites
[18]
  T1/2 of TFVpp: 3.7
  Tmax of TFVpp: 48 h
[19]; rat, in vivo
  initial plasma values: ~100 ng/mL
[19]
  time with plasma levels at a virally significant level: 28 days
[32]
  clinical observations, metabolic panels, CBCs: no clinical observations of significance
[20]
  CC50: 8720 nM
[22]
  EC50: 1.7 nM
[22]; reference line in FIG. 12A
  ED90: 10.9 ng/mL
[22]; variation of the diester substituent of ODE-TFV
  Selectivity Index: 5130

Source: US12594292B2, “Antiviral prodrugs, intermediate-and long-acting formulations and methods” (priority 2022, dated 2026)
